The supplement of paper PMC10307832

Tests used:
Assay in all cases: relative viability (nuclei count vs DMSO), 5 days (fraction); higher = more cells survive
[1] = compound: O=C1NC(=O)[C@@H](c2cn3c4c(cccc24)CCC3)[C@@H]1c1c[nH]c2ccccc12 [Tivantinib] + CC(C)C[C@H](NC(=O)[C@H](Cc1ccccc1)NC(=O)c1cnccn1)B(O)O [Bortezomib] (partner 0.002 µM)
In short: (§1)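 Lung cancer cell lines in 1536-well plates got either a single drug or a fixed anchor-drug dose together with five library-drug doses (not always all listed) in √10 steps, by pin tool, on the day after seeding. Nuclei were counted after 5 days, and relative viability is the treated-to-vehicle ratio of nuclei counts. Values are medians of duplicate plates.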

[2] = compound: O=C1NC(=O)[C@@H](c2cn3c4c(cccc24)CCC3)[C@@H]1c1c[nH]c2ccccc12 [Tivantinib] + C[C@@H](Oc1cc(-c2cnn(C3CCNCC3)c2)cnc1N)c1c(Cl)ccc(F)c1Cl [Crizotinib] (partner 1 µM)
In short: as §1

[3] = compound: CC1(COc2ccc3c(c2)ncn3-c2ccc3cccc(N4CCC(N)CC4)c3n2)COC1 [Crenolanib] + Nc1nc2[nH]cc(CCc3ccc(C(=O)N[C@@H](CCC(=O)O)C(=O)O)cc3)c2c(=O)[nH]1 [Pemetrexed] (partner 0.2 µM)
In short: as §1

[4] = compound: CC1(COc2ccc3c(c2)ncn3-c2ccc3cccc(N4CCC(N)CC4)c3n2)COC1 [Crenolanib] + COc1cc2c(Oc3ccc(NC(=O)C4(C(=O)Nc5ccc(F)cc5)CC4)cc3F)ccnc2cc1OCCCN1CCOCC1 [Foretinib] (partner 0.25 µM)
In short: as §1

UMC-11
relative viability ([1]; first compound 0.01 µM): 0.678 | relative viability ([1]; first compound 0.03162 µM): 0.734 | relative viability ([1]; first compound 0.1 µM): 0.551 | relative viability ([1]; first compound 0.3162 µM): 0.969 | relative viability ([2]; first compound 0.01 µM): 0.662 | relative viability ([2]; first compound 0.03162 µM): 0.601 | relative viability ([2]; first compound 0.1 µM): 0.637 | relative viability ([2]; first compound 0.3162 µM): 0.531 | relative viability ([3]; first compound 0.01 µM): 0.791 | relative viability ([3]; first compound 0.03162 µM): 0.755 | relative viability ([3]; first compound 0.1 µM): 0.738 | relative viability ([3]; first compound 0.3162 µM): 0.832 | relative viability ([3]; first compound 1 µM): 0.741 | relative viability ([4]; first compound 0.01 µM): 1.07 | relative viability ([4]; first compound 0.03162 µM): 1.11 | relative viability ([4]; first compound 0.1 µM): 0.95 | relative viability ([4]; first compound 0.3162 µM): 1.21 | relative viability ([4]; first compound 1 µM): 0.947
